Values of other authors in patent publication US20130224268A1, “TOPICAL DELIVERY OF HORMONAL AND NON HORMONAL NANO FORMULATIONS, METHODS OF MAKING AND USING THE SAME” (NEWGEN BIOPHARMA CORP., priority 2012, published 2013).

System: hydroxyproline, a major constituent amino acid in collagen
Details: topical estradiol treatment

C[C@]12CC[C@@H]3c4ccc(O)cc4CC[C@H]3[C@@H]1CC[C@@H]2O [estradiol, (17β)-estra-1,3,5(10)-triene-3,17-diol]
increase in hydroxyproline: 38%
